For test [1], the system named is Ehrlich ascites tumour, ELD hyperdiploid (46 chromosomes). Briefly: Ehrlich ascites tumour test (LD50, ED50, therapeutic index). The class given is in vivo, SPF NMRI mice. Conditions: additional compounds, result in words. The text has this: (§1) The high activity against tumours is further illustrated in these experiments by comparisons with known antitumour agents used in the therapy. The therapeutic indexes (T.I.), i.e. the ratios LD50/ED50, are in all comparisons much more favourable with the compounds of the present invention.
(§2) LD50 is the dose that caused a 50 percent lethality of the animals, ED50 is the dose that caused a 50 percent reduction of tumour size.
(§3) The experimental design and the interpretation of the results have been in accordance with the standards set by the CCNSC (Cancer Chemotherapy Reports, January 1959 and December 1962), and by the DR&D (Cancer Chemotherapy Reports, September 1972, Vol. 3, No. 2).
(§4) The way of administration is by the intraperitoneal route (i.p.) in each case.
Ehrlich ascites tumour, ELD hyperdiploid (46 chromosomes)
Experimental animals: SPF NMRI mice.
Tumour implant: 2 × 10^6 tumour cells i.p.
(§5) Therapy: One injection i.p. on the day following implantation.
(§6) Termination: The animals are killed on the 8th day.
(§7) Evaluation: Weights of tumours of test animals compared with those of control animals.

For the next test, the system named is Hepatoma AH 130. Briefly: in vivo. Further details: species or system SPF Wistar rats. The note with it: additional compounds, result in words.
Text: as §1, §2, §3, §4
Experimental animals: SPF Wistar rats.
Tumour implant: 5 × 10^6 tumour cells i.p.
as §5, §6, §7

For `CC[C@]1(OC(=O)N(CCCl)N=O)CC[C@H]2[C@@H]3CCC4=CC(=O)CC[C@@H]4[C@H]3CC[C@@]21C` [17α-ethyl-19-nortestosterone-17β-N-(2-chloroethyl)-N-nitroso carbamate], the anti-tumor activity result (in test [1]; with Hepatoma AH 130) was “exhibit anti-tumor activity” in each case.

Consider `C#C[C@]1(OC(=O)N(CCCl)C(=O)N(CCCl)N=O)CC[C@H]2[C@@H]3CCC4=CC(=O)CC[C@@H]4[C@H]3CC[C@@]21C` [17α-ethynyl-19-nortestosterone-17β-/N^2,N^4-bis (2-chloroethyl)-N^4-nitroso allophanate/], for which the anti-tumor activity entry (in test [1]; in the test on Hepatoma AH 130) was “exhibit anti-tumor activity” in each case.

Regarding `C#C[C@]1(OC(=O)N(CCCl)N=O)CC[C@H]2[C@@H]3CCC4=CC(=O)CC[C@@H]4[C@H]3CC[C@@]21C` [17α-ethynyl-19-nortestosterone-17β-N-(2-chloroethyl)-N-nitroso carbamate], the anti-tumor activity result (in test [1]; with Hepatoma AH 130) was “exhibit anti-tumor activity” in each case.

As for `C#C[C@]1(OC(=O)N(CCCl)N=O)CC[C@H]2[C@@H]3CCc4cc(OC(C)=O)ccc4[C@H]3CC[C@@]21C` [17α-ethynylestradiol-3-acetate-17β-N-(2-chloroethyl)-N-nitroso carbamate], the anti-tumor activity entry (in test [1]; in the test on Hepatoma AH 130) was “exhibit anti-tumor activity” throughout.

Regarding `C#C[C@]1(OC(C)=O)CC[C@H]2[C@@H]3CCc4cc(OC(=O)N(CCCl)C(=O)N(CCCl)N=O)ccc4[C@H]3CC[C@@]21C` [17α-ethynylestradiol-17β-acetate-3-/N^2,N^4-bis(2-chloroethyl)-N^4-nitroso allophanate/], the anti-tumor activity result (in test [1]; with Hepatoma AH 130) was “exhibit anti-tumor activity” throughout.

Regarding `C#C[C@]1(OC(C)=O)CC[C@H]2[C@@H]3CCc4cc(OC(=O)N(CCCl)N=O)ccc4[C@H]3CC[C@@]21C` [17α-ethynylestradiol-17β-acetate-3-N-(2-chloroethyl)-N-nitroso carbamate], the anti-tumor activity entry (in test [1]; in the test with Hepatoma AH 130) was “exhibit anti-tumor activity” in each case.

With `CC(=O)[C@@]1(OC(=O)N(CCCl)N=O)CC[C@H]2[C@@H]3CCC4=CC(=O)CC[C@]4(C)[C@H]3CC[C@@]21C` [17α-hydroxy-progesterone,17α-N-(2-chloroethyl)-N-nitroso carbamate], the anti-tumor activity result (in test [1]; with Hepatoma AH 130) was “exhibit anti-tumor activity” each time.

With `C[C@]12CC[C@H]3[C@@H](CCC4=CC(=O)CC[C@@H]43)[C@@H]1CC[C@@H]2OC(=O)N(C(=O)N(CCCl)N=O)C1CCCCC1` [19-nortestosterone-17β-/N^2-cyclohexyl-N^4-(2-chloroethyl)-N^4-nitroso allophanate/], the anti-tumor activity entry (in test [1]; in the test with Hepatoma AH 130) was “exhibit anti-tumor activity” throughout.

In the case of `C[C@]12CC[C@@H](OC(=O)N(CCCl)N=O)C[C@@H]1CC[C@@H]1[C@@H]2CC[C@]2(C)[C@@H](OP(=O)(O)O)CC[C@@H]12` [androstanediol-3α-N-(2-chloroethyl)-N-nitroso carbamate-17β-dihydrogen phosphate], the anti-tumor activity entry (in test [1]; in the test with Hepatoma AH 130) was “exhibit anti-tumor activity” each time.

As for `CCCCCCC(=O)O[C@H]1CC[C@H]2[C@@H]3CC[C@H]4C[C@H](OC(=O)N(CCCl)N=O)CC[C@]4(C)[C@H]3CC[C@]12C` [androstanediol-3α-N-(2-chloroethyl)-N-nitroso carbamate-17β-oenanthate], the anti-tumor activity entry (in test [1]; with Hepatoma AH 130) was “exhibit anti-tumor activity” each time.

In the case of `C[C@]12CC[C@@H](OC(=O)N(CCCl)N=O)C[C@@H]1CC[C@@H]1[C@@H]2CC[C@]2(C)[C@@H](O)CC[C@@H]12` [androstanediol-3α-N-(2-chloroethyl)-N-nitroso carbamate], the anti-tumor activity entry (in test [1]; in the test with Hepatoma AH 130) was “exhibit anti-tumor activity” each time.

In the case of `CC(C)CCC[C@@H](C)[C@H]1CC[C@H]2[C@@H]3CC=C4C[C@@H](OC(=O)N(C(=O)N(CCCl)N=O)C5CCCCC5)CC[C@]4(C)[C@H]3CC[C@]12C` [cholesterol-3β-/N^2-cyclohexyl-N^4-(2-chloroethyl)-N^4-nitroso allophanate/], the anti-tumor activity result (in test [1]; in the test with Hepatoma AH 130) was “exhibit anti-tumor activity” each time.

For the compound `C[C@]12CC[C@H](OC(=O)N(CCCl)C(=O)N(CCCl)N=O)CC1=CC[C@@H]1[C@@H]2CC[C@]2(C)C(=O)CC[C@@H]12` [dehydroepiandrosterone-3β-/N^2,N^4-bis (2-chloroethyl)-N^4-nitroso allophanate/], the anti-tumor activity entry (in test [1]; with Hepatoma AH 130) was “exhibit anti-tumor activity” in each case.

For `C[C@]12CC[C@H](OC(=O)N(C(=O)N(CCCl)N=O)c3ccc(Cl)cc3)CC1=CC[C@@H]1[C@@H]2CC[C@]2(C)C(=O)CC[C@@H]12` [dehydroepiandrosterone-3β-/N^2-(p-chlorophenyl)-N^4-(2-chloroethyl)-N^4-nitroso allophanate/], the anti-tumor activity entry (in test [1]; in the test on Hepatoma AH 130) was “exhibit anti-tumor activity” each time.

As for `COc1ccc(N(C(=O)O[C@H]2CC[C@@]3(C)C(=CC[C@@H]4[C@@H]3CC[C@]3(C)C(=O)CC[C@@H]43)C2)C(=O)N(CCCl)N=O)cc1` [dehydroepiandrosterone-3β-/N^2-(p-methoxyphenyl)-N^4-(2-chloroethyl)-N^4-nitroso allophanate/], the anti-tumor activity result (in test [1]; with Hepatoma AH 130) was “exhibit anti-tumor activity” in each case.

Consider `C[C@]12CC[C@H](OC(=O)N(C(=O)N(CCCl)N=O)C3CCCCC3)CC1=CC[C@@H]1[C@@H]2CC[C@]2(C)C(=O)CC[C@@H]12` [dehydroepiandrosterone-3β-/N^2-cyclohexyl-N^4-(2-chloroethyl)-N^4-nitroso allophanate/], for which the anti-tumor activity result (in test [1]; in the test with Hepatoma AH 130) was “exhibit anti-tumor activity” throughout.

`CN(C(=O)O[C@H]1CC[C@@]2(C)C(=CC[C@@H]3[C@@H]2CC[C@]2(C)C(=O)CC[C@@H]32)C1)C(=O)N(CCCl)N=O` [dehydroepiandrosterone-3β-/N^2-methyl-N^4-(2-chloroethyl)-N^4-nitroso allophanate/]: the anti-tumor activity entry (in test [1]; in the test on Hepatoma AH 130) was “exhibit anti-tumor activity” each time.

For `CCCCN(C(=O)O[C@H]1CC[C@@]2(C)C(=CC[C@@H]3[C@@H]2CC[C@]2(C)C(=O)CC[C@@H]32)C1)C(=O)N(CCCl)N=O` [dehydroepiandrosterone-3β-/N^2-n-butyl-N^4-(2-chloroethyl)-N^4-nitroso allophanate/], the anti-tumor activity result (in test [1]; in the test on Hepatoma AH 130) was “exhibit anti-tumor activity” in each case.

Regarding `C[C@]12CC[C@H](OC(=O)N(C(=O)N(CCCl)N=O)c3ccccc3)CC1=CC[C@@H]1[C@@H]2CC[C@]2(C)C(=O)CC[C@@H]12` [dehydroepiandrosterone-3β-/N^2-phenyl-N^4-(2-chloroethyl)-N^4-nitroso allophanate/], the anti-tumor activity result (in test [1]; with Hepatoma AH 130) was “exhibit anti-tumor activity” each time.

As to `C[C@]12CC[C@H](OC(=O)NC(=O)N(CCCl)N=O)CC1=CC[C@@H]1[C@@H]2CC[C@]2(C)C(=O)CC[C@@H]12` [dehydroepiandrosterone-3β-/N^4-(2-chloroethyl)-N^4-nitroso allophanate/], the anti-tumor activity entry (in test [1]; with Hepatoma AH 130) was “exhibit anti-tumor activity” in each case.

Take `C[C@]12CC[C@H](OC(=O)N(CCF)N=O)CC1=CC[C@@H]1[C@@H]2CC[C@]2(C)C(=O)CC[C@@H]12` [dehydroepiandrosterone-3β-N-(2-fluoroethyl)-N-nitroso carbamate]: the anti-tumor activity result (in test [1]; in the test with Hepatoma AH 130) was “exhibit anti-tumor activity” throughout.

On to `CC(=O)[C@H]1CC[C@H]2[C@@H]3CC=C4C[C@@H](OC(=O)N(C(=O)N(CCCl)N=O)C5CCCCC5)CC[C@]4(C)[C@H]3CC[C@]12C` [pregnenolone-3β-/N^2-cyclohexyl-N^4-(2-chloroethyl)-N^4-nitroso allophanate/], for which the anti-tumor activity entry with Hepatoma AH 130 was “exhibit anti-tumor activity”.

`CC(=O)[C@H]1CC[C@H]2[C@@H]3CC=C4C[C@@H](OC(=O)N(C)C(=O)N(CCCl)N=O)CC[C@]4(C)[C@H]3CC[C@]12C` [pregnenolone-3β-/N^2-methyl-N^4-(2-chloroethyl)-N^4-nitroso allophanate/]: the anti-tumor activity entry in the test on Hepatoma AH 130 is “exhibit anti-tumor activity”.

Regarding `CC(=O)[C@H]1CC[C@H]2[C@@H]3CC=C4C[C@@H](OC(=O)N(C(=O)N(CCCl)N=O)c5ccccc5)CC[C@]4(C)[C@H]3CC[C@]12C` [pregnenolone-3β-/N^2-phenyl-N^4-(2-chloroethyl)-N^4-nitroso allophanate/], in the test with Hepatoma AH 130, the anti-tumor activity result is “exhibit anti-tumor activity”.

With `CC(=O)[C@H]1CC[C@H]2[C@@H]3CC=C4C[C@@H](OC(=O)N(CCF)N=O)CC[C@]4(C)[C@H]3CC[C@]12C` [pregnenolone-3β-N-(2-fluoroethyl)-N-nitroso carbamate], the anti-tumor activity entry with Hepatoma AH 130 is “exhibit anti-tumor activity”.

These data come from patent US3963707A, “Novel N-nitroso compounds, compositions containing such compounds, processes for their preparation and methods of treatment therewith, and novel intermediates” (Aktiebolaget Leo, priority 1973, dated 1976).
